The results in this text go back to patent publication US7517884B2 (Kalypsys Inc., priority 1998, dated 2009).

Holding throughout (assay type): cell-based, murine and human
Details in all cases: GAL4-PPAR LBD chimera

The target of one assay is T1, PPAR-alpha (UniProt Q07869).
T1 sequence (Q07869 1-468): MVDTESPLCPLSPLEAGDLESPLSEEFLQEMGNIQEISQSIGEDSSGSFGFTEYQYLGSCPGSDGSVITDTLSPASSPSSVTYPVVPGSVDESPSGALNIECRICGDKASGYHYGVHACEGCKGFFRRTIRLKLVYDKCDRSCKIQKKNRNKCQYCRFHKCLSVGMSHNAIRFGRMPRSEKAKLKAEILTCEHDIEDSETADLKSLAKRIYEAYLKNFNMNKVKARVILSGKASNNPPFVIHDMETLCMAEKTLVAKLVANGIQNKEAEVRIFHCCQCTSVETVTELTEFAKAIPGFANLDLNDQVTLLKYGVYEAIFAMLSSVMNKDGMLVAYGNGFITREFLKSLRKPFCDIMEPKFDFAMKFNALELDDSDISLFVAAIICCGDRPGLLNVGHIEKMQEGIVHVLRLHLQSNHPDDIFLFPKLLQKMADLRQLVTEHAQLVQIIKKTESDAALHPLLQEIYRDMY
Put plainly: PPAR-alpha transactivation assay (GAL4 chimera, luciferase reporter) in CV-1 cells. In a few lines:
(§1)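 CV-1 cells transiently transfected with murine or human PPAR-alpha, -gamma or -delta ligand-binding domain fused to GAL4 DNA-binding domain plus a GAL4-site luciferase reporter. After replating in phenol-red-free DME with 5% delipidated calf serum, cells were exposed to compound 20-24 h; luciferase read-out gave EC50.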

The next assay has as its target T2, PPAR-delta (UniProt Q03181).
T2 sequence (Q03181 1-441): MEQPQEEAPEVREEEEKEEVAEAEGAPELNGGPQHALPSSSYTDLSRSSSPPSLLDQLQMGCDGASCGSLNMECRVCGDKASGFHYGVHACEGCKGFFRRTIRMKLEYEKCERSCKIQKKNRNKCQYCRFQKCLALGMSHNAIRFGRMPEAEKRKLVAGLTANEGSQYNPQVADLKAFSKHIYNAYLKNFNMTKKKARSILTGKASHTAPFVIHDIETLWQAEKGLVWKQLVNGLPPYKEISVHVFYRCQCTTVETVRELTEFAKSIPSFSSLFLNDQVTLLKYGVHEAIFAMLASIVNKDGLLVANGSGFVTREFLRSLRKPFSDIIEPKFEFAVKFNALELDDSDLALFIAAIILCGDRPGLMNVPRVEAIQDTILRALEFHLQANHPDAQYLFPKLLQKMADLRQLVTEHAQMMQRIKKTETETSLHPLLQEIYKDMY
Put plainly: PPAR-delta transactivation assay (GAL4 chimera, luciferase reporter) in CV-1 cells. In a few lines:
as §1

Another assay deals with T3, PPAR-gamma (UniProt P37231).
T3 sequence (P37231 1-505): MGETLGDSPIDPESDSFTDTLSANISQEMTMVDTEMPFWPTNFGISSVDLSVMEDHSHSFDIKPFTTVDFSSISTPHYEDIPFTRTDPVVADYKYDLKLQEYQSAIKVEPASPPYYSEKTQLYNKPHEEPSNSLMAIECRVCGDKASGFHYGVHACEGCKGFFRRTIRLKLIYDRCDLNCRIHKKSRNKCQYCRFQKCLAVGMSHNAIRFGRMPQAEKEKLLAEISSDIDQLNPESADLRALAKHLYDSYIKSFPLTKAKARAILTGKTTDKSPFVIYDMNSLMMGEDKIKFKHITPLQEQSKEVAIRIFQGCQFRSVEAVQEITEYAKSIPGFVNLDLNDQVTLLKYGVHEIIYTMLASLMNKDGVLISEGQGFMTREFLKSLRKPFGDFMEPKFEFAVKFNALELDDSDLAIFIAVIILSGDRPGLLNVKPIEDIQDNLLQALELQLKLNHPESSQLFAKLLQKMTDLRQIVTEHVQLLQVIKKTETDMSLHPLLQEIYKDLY
Put plainly: PPAR-gamma transactivation assay (GAL4 chimera, luciferase reporter) in CV-1 cells. In a few lines:
as §1
For orientation: Reporter assays use an easily measured gene product as a stand-in for the process of interest.

pEC50: −log10 of the molar value. Bounds are passed on as bounds.

For the compound `CC1(C)CN(S(=O)(=O)c2ccc3c(c2)C(C(=O)O)CC3)CCN1c1ccc(C(F)(F)F)cn1` (stereo not drawn) [Example 73, 6-[3,3-dimethyl-4-(5-trifluoromethyl-pyridin-2-yl)-piperazine-1-sulfonyl]-indan-1-carboxylic acid], the pEC50 is 4.00 to 5.30 at PPAR-alpha, above 5.30 at PPAR-delta and above 5.30 at PPAR-gamma.

Turning to `O=C(O)C1CCc2ccc(S(=O)(=O)N3CCN(c4ccc(C(F)(F)F)c(Cl)c4)CC3)cc21` (stereo not drawn) [Example 74, 6-[4-(3-chloro-4-trifluoromethyl-phenyl)-piperazine-1-sulfonyl]-indan-1-carboxylic acid], the pEC50 on PPAR-alpha, at PPAR-delta and on PPAR-gamma was above 5.30 in each case.

As to `C[C@@H]1CN(c2ccc(C(F)(F)F)cn2)C[C@H](C)N1S(=O)(=O)c1cccc2c1CC(C(=O)O)C2` (stereo partly drawn) [Example 77, 4-[cis-2,6-dimethyl-4-(5-trifluoromethyl-pyridin-2-yl)-piperazine-1-sulfonyl]-indan-2-carboxylic acid], the results for the pEC50 at PPAR-alpha, at PPAR-delta and at PPAR-gamma were below 4.00, above 5.30 and below 4.00, respectively.

In the case of `O=C(O)C1CCc2ccc(S(=O)(=O)N3C4CCC3CN(c3ccc(C(F)(F)F)cn3)C4)cc21` (stereo not drawn) [Example 78], the figures for the negative logarithm of the EC50 (pEC50) on PPAR-alpha, on PPAR-delta and at PPAR-gamma were 4.00 to 5.30, above 5.30 and 4.00 to 5.30, respectively.

Regarding `C[C@@H]1CN(c2ccc(OC(F)(F)F)cc2)C[C@H](C)N1S(=O)(=O)c1cccc2c1CC(C(=O)O)C2` (stereo partly drawn) [Example 79, 4-[cis-2,6-dimethyl-4-(4-trifluoromethoxy-phenyl)-piperazine-1-sulfonyl]-indan-2-carboxylic acid], the pEC50 on PPAR-alpha was below 4.00; at PPAR-delta it was above 5.30; on PPAR-gamma, below 4.00.

`C[C@@H]1CN(c2ccc(C(F)(F)F)c(F)c2)C[C@H](C)N1S(=O)(=O)c1cccc2c1CC(C(=O)O)C2` (stereo partly drawn) [Example 83, 4-[4-(3-fluoro-4-trifluoromethyl-phenyl)-cis-2,6-dimethyl-piperazine-1-sulfonyl]-indan-2-carboxylic acid]: the pEC50 was 4.00 to 5.30 at PPAR-alpha, above 5.30 on PPAR-delta and 4.00 to 5.30 at PPAR-gamma.

For `C[C@@H]1CN(c2ccc(OC(F)(F)F)cc2)C[C@H](C)N1S(=O)(=O)c1ccc2c(c1)CC(C(=O)O)C2` (stereo partly drawn) [Example 84, 5-[2,6-cis-dimethyl-4-(4-trifluoromethoxy-phenyl)-piperazine-1-sulfonyl]-indan-2-carboxylic acid], the pEC50 on PPAR-alpha was below 4.00; on PPAR-delta, 4.00 to 5.30; on PPAR-gamma, 4.00 to 5.30.

In the case of `Cc1cc(N2C[C@@H](C)N(S(=O)(=O)c3ccc4c(c3)C(C(=O)O)CC4)[C@@H](C)C2)ccc1OC(F)F` (stereo partly drawn) [Example 85, 6-[4-(4-difluoromethoxy-3-methyl-phenyl)-2,6-dimethyl-piperazine-1-sulfonyl]-indan-1-carboxylic acid], the figures for the pEC50 at PPAR-alpha, at PPAR-delta and at PPAR-gamma were 4.00 to 5.30, above 5.30 and 4.00 to 5.30, respectively.

For `C[C@@H]1CN(c2ccc(OC(F)(F)F)cc2)C[C@H](C)N1S(=O)(=O)c1ccc2ccn(CC(=O)O)c2c1` [Example 88, {6-[cis-2,6-Dimethyl-4-(4-trifluoromethoxy-phenyl)-piperazine-1-sulfonyl]-indol-1-yl}-acetic acid], the pEC50 was below 4.00 on PPAR-alpha, above 5.30 on PPAR-delta and 4.00 to 5.30 at PPAR-gamma.

Take `O=C(O)C1Cc2cccc(S(=O)(=O)N3CCN(c4ccc(OC(F)(F)F)cn4)CC3)c2C1` (stereo not drawn) [Example 89, 4-[4-(5-Trifluoromethoxy-pyridin-2-yl)-piperazine-1-sulfonyl]-indan-2-carboxylic acid]: the pEC50 on PPAR-alpha, on PPAR-delta and at PPAR-gamma was above 5.30 throughout.

As to `O=C(O)Cn1ccc2ccc(S(=O)(=O)N3CCN(c4ccc(OC(F)(F)F)cc4)CC3)cc21` [Example 90, {6-[4-(4-Trifluoromethoxy-phenyl)-piperazine-1-sulfonyl]-indol-1-yl}-acetic acid], the values for the pEC50 on PPAR-alpha, on PPAR-delta and on PPAR-gamma were 4.00 to 5.30, above 5.30 and 4.00 to 5.30, respectively.

On to `O=C(O)CN1CCc2ccc(S(=O)(=O)N3CCN(c4ccc(OC(F)(F)F)cc4)CC3)cc21` [Example 91, {6-[4-(4-trifluoromethoxy-phenyl)-piperazine-1-sulfonyl]-2,3-dihydro-indol-1-yl}-acetic acid], for which the figures for the pEC50 on PPAR-alpha, on PPAR-delta and at PPAR-gamma were 4.00 to 5.30, above 5.30 and above 5.30, respectively.

`O=C(O)C1Cc2cccc(S(=O)(=O)N3CCN(c4ccc(Cl)cc4)CC3)c2C1` (stereo not drawn) [Example 92, 4-[4-(4-chloro-phenyl)-piperazine-1-sulfonyl]-indan-2-carboxylic acid]: the results for the pEC50 on PPAR-alpha, on PPAR-delta and on PPAR-gamma were 4.00 to 5.30, above 5.30 and 4.00 to 5.30, respectively.

Consider `C[C@H]1CN(c2ccc(OC(F)(F)F)cc2)CCN1S(=O)(=O)c1cccc2c1CC(C(=O)O)C2` (stereo partly drawn) [Example 93, 4-[2-(S)-Methyl-4-(4-trifluoromethoxy-phenyl)-piperazine-1-sulfonyl]-indan-2-carboxylic acid], for which the figures for the pEC50 at PPAR-alpha, on PPAR-delta and on PPAR-gamma were 4.00 to 5.30, above 5.30 and 4.00 to 5.30, respectively.

As for `C[C@H]1CN(c2ccc(C(F)(F)F)cn2)CCN1S(=O)(=O)c1cccc2c1CC(C(=O)O)C2` (stereo partly drawn) [Example 94, 4-[2-(S)-Methyl-4-(5-trifluoromethyl-pyridin-2-yl)-piperazine-1-sulfonyl]-indan-2-carboxylic acid], the pEC50 was 4.00 to 5.30 on PPAR-alpha, above 5.30 on PPAR-delta and 4.00 to 5.30 at PPAR-gamma.

For `C[C@@H]1CN(Cc2ccc(OC(F)(F)F)cc2)C[C@H](C)N1S(=O)(=O)c1cccc2c1CC(C(=O)O)C2` (stereo partly drawn) [Example 95, 4-[cis-2,6-dimethyl-4-(4-trifluoromethoxyl-benzyl)-piperazine-1-sulfonyl]-indan-2-carboxylic acid], the pEC50 is 4.00 to 5.30 at PPAR-alpha, above 5.30 at PPAR-delta and 4.00 to 5.30 at PPAR-gamma.

Consider `C[C@@H]1CN(Cc2ccc(C(F)(F)F)cc2)C[C@H](C)N1S(=O)(=O)c1cccc2c1CC(C(=O)O)C2` (stereo partly drawn) [Example 96, 4-[cis-2,6-dimethyl-4-(4-trifluoromethyl-benzyl)-piperazine-1-sulfonyl]-indan-2-carboxylic acid], for which the negative logarithm of the EC50 (pEC50) on PPAR-alpha was below 4.00; at PPAR-delta, above 5.30; on PPAR-gamma, 4.00 to 5.30.

For the compound `O=C(O)C1Cc2cccc(S(=O)(=O)N3CCN(Cc4ccc(C(F)(F)F)cc4)CC3)c2C1` (stereo not drawn) [Example 97, 4-[4-(4-trifluoromethyl-benzyl)-piperazine-1-sulfonyl]-indan-2-carboxylic acid], the results for the negative-log EC50 (pEC50) on PPAR-alpha, at PPAR-delta and on PPAR-gamma were 4.00 to 5.30, above 5.30 and 4.00 to 5.30, respectively.

Turning to `O=C(O)C1Cc2cccc(S(=O)(=O)N3CCN(Cc4ccc(OC(F)(F)F)cc4)CC3)c2C1` (stereo not drawn) [Example 98, 4-[4-(4-trifluoromethoxy-benzyl)-piperazine-1-sulfonyl]-indan-2-carboxylic acid], the pEC50 on PPAR-alpha is 4.00 to 5.30; at PPAR-delta, above 5.30; on PPAR-gamma, above 5.30.

Turning to `C[C@@H]1CN(c2ccc(OC(F)(F)F)cn2)C[C@H](C)N1S(=O)(=O)c1cccc2c1CC(C(=O)O)C2` (stereo partly drawn) [Example 99], the pEC50 at PPAR-alpha is 4.00 to 5.30; at PPAR-delta, above 5.30; at PPAR-gamma, 4.00 to 5.30.

For `C[C@@H]1CN(c2ccc(OC(F)(F)F)cc2)C[C@H](C)N1S(=O)(=O)c1ccc2scc(CC(=O)O)c2c1` [Example 100, {5-[cis-2,6-dimethyl-4-(4-trifluoromethoxy-phenyl)-piperazine-1-sulfonyl]-benzo[b]thiophen-3-yl}-acetic acid], the pEC50 at PPAR-alpha is 4.00 to 5.30; on PPAR-delta, above 5.30; at PPAR-gamma it was 4.00 to 5.30.

The term pEC50 denotes −log10 of the EC50, conventionally taken in molar units. Low values mean a large EC50, high ones a small EC50.
